# Legend:
# Assay in all cases: cells
# COLO-800 = assay type: functional, cell-based, Homo sapiens; conditions: Homo sapiens, COLO-800;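 note: growth inhibition of COLO-800 cells, read out with a cell viability assay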
# Description: SANGER: Inhibition of human COLO-800 cell growth in a cell viability assay.
# D-263MG = assay type: functional, cell-based, Homo sapiens; conditions: Homo sapiens, D-263MG
# Description: SANGER: Inhibition of human D-263MG cell growth in a cell viability assay.
# DMS-114 = assay type: functional, cell-based, Homo sapiens; conditions: Homo sapiens, DMS-114
# ES1 = assay type: functional, cell-based, Homo sapiens; conditions: Homo sapiens, ES1;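 note: growth inhibition of ES1 cells, read out with a cell viability assay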
# Description: SANGER: Inhibition of human ES1 cell growth in a cell viability assay.
# ES6 = assay type: functional, cell-based; conditions: Homo sapiens;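 note: growth inhibition of human ES6 cells, read out with a cell viability assay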
# Description: SANGER: Inhibition of human ES6 cell growth in a cell viability assay.
# ES8 = assay type: functional, cell-based, Homo sapiens; conditions: Homo sapiens, ES8;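 note: growth inhibition of human ES8 cells, read out with a cell viability assay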
# Description: SANGER: Inhibition of human ES8 cell growth in a cell viability assay.
# ETK-1 = assay type: functional, cell-based, Homo sapiens; conditions: Homo sapiens, ETK-1;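 note: growth inhibition of human ETK-1 cells, read out with a cell viability assay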
# Description: SANGER: Inhibition of human ETK-1 cell growth in a cell viability assay.
# GB-1 = assay type: functional, cell-based, Homo sapiens; conditions: Homo sapiens, GB-1;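 note: growth of GB-1 cells judged by a viability assay, IC50 marks the concentration inhibiting growth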
# Description: SANGER: Inhibition of human GB-1 cell growth in a cell viability assay.
# GI-1 = assay type: functional, cell-based, Homo sapiens; conditions: Homo sapiens, GI-1;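 note: growth inhibition of human GI-1 cells, measured with a cell viability readout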
# Description: SANGER: Inhibition of human GI-1 cell growth in a cell viability assay.
# GOTO = assay type: functional, cell-based, Homo sapiens; conditions: Homo sapiens, GOTO;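 note: growth inhibition of GOTO cells, read out by a cell viability assay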
# Description: SANGER: Inhibition of human GOTO cell growth in a cell viability assay.
# HCC2157 = assay type: functional, cell-based, Homo sapiens; conditions: Homo sapiens, HCC2157;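 note: growth inhibition of the cancer cell line, read out as cell viability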
# Description: SANGER: Inhibition of human HCC2157 cell growth in a cell viability assay.
# HCE-4 = assay type: functional, cell-based; conditions: Homo sapiens;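 note: cell viability assay measuring inhibition of growth in the human HCE-4 cell line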
# Description: SANGER: Inhibition of human HCE-4 cell growth in a cell viability assay.
# HH = assay type: functional, cell-based, Homo sapiens; conditions: Homo sapiens, HH
# Description: SANGER: Inhibition of human HH cell growth in a cell viability assay.
# HOP-62 = assay type: functional, cell-based, Homo sapiens; conditions: Homo sapiens, HOP-62;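 note: cell growth inhibition determined with a viability assay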
# Description: SANGER: Inhibition of human HOP-62 cell growth in a cell viability assay.
# IA-LM = assay type: functional, cell-based; conditions: Homo sapiens;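 note: cell viability assay measuring growth inhibition of human IA-LM cells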
# Description: SANGER: Inhibition of human IA-LM cell growth in a cell viability assay.
# KARPAS-299 = assay type: functional, cell-based, Homo sapiens; conditions: Homo sapiens, KARPAS-299
# Description: SANGER: Inhibition of human KARPAS-299 cell growth in a cell viability assay.
# KARPAS-45 = assay type: functional, cell-based, Homo sapiens; conditions: Homo sapiens, KARPAS-45;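 note: inhibition of cell line growth, read out through a viability assay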
# Description: SANGER: Inhibition of human KARPAS-45 cell growth in a cell viability assay.
# KNS-42 = assay type: functional, cell-based; conditions: Homo sapiens;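 note: growth inhibition of KNS-42 cells, read out with a cell viability assay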
# Description: SANGER: Inhibition of human KNS-42 cell growth in a cell viability assay.
# KS-1 = assay type: functional, cell-based; conditions: Homo sapiens;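 note: growth inhibition of KS-1 cells, read out with a cell viability assay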
# Description: SANGER: Inhibition of human KS-1 cell growth in a cell viability assay.
# LB2518-MEL = assay type: functional, cell-based; conditions: Homo sapiens;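 note: growth inhibition of human LB2518-MEL cells, measured with a cell viability assay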
# Description: SANGER: Inhibition of human LB2518-MEL cell growth in a cell viability assay.
# LNCaP-Clone-FGC = assay type: functional, cell-based, Homo sapiens; conditions: Homo sapiens, LNCaP-Clone-FGC
# Description: SANGER: Inhibition of human LNCaP-Clone-FGC cell growth in a cell viability assay.
# LOX IMVI = assay type: functional, cell-based, Homo sapiens; conditions: Homo sapiens, LOX IMVI
# Description: SANGER: Inhibition of human LOXIMVI cell growth in a cell viability assay.
# LS-123 = assay type: functional, cell-based, Homo sapiens; conditions: Homo sapiens, LS-123
# Description: SANGER: Inhibition of human LS-123 cell growth in a cell viability assay.
# LU-134-A = assay type: functional, cell-based, Homo sapiens; conditions: Homo sapiens, LU-134-A
# Description: SANGER: Inhibition of human LU-134-A cell growth in a cell viability assay.
# MFM-223 = assay type: functional, cell-based, Homo sapiens; conditions: Homo sapiens, MFM-223
# Description: SANGER: Inhibition of human MFM-223 cell growth in a cell viability assay.
# MLMA = assay type: functional, cell-based, Homo sapiens; conditions: Homo sapiens, MLMA;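 note: growth inhibition of MLMA cells (human), determined through a cell viability readout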
# Description: SANGER: Inhibition of human MLMA cell growth in a cell viability assay.
# MZ1-PC = assay type: functional, cell-based, Homo sapiens; conditions: Homo sapiens, MZ1-PC;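 note: cell viability assay measuring growth inhibition of human MZ1-PC cells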
# Description: SANGER: Inhibition of human MZ1-PC cell growth in a cell viability assay.
# MZ7-mel = assay type: functional, cell-based, Homo sapiens; conditions: Homo sapiens, MZ7-mel;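 note: growth inhibition of human MZ7-mel cells, measured by a cell viability assay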
# Description: SANGER: Inhibition of human MZ7-mel cell growth in a cell viability assay.
# Mo = assay type: functional, cell-based, Homo sapiens; conditions: Homo sapiens, Mo
# Description: SANGER: Inhibition of human Mo-T cell growth in a cell viability assay.
# NCI-H1355 = assay type: functional, cell-based, Homo sapiens; conditions: Homo sapiens, NCI-H1355;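 note: growth inhibition of human NCI-H1355 cells, read out by a cell viability assay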
# Description: SANGER: Inhibition of human NCI-H1355 cell growth in a cell viability assay.
# NCI-H209 = assay type: functional, cell-based, Homo sapiens; conditions: Homo sapiens, NCI-H209;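 note: growth inhibition of human NCI-H209 cells, measured by a cell viability assay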
# Description: SANGER: Inhibition of human NCI-H209 cell growth in a cell viability assay.
# NTERA-2-cl-D1 = assay type: functional, cell-based, Homo sapiens; conditions: Homo sapiens, NTERA-2-cl-D1;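 note: inhibition of cell growth, measured with a cell viability assay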
# Description: SANGER: Inhibition of human NTERA-S-cl-D1 cell growth in a cell viability assay.
# RPMI-8866 = assay type: functional, cell-based, Homo sapiens; conditions: Homo sapiens, RPMI-8866
# Description: SANGER: Inhibition of human RPMI-8866 cell growth in a cell viability assay.
# Ramos-2G6-4C10 = assay type: functional, cell-based, Homo sapiens; conditions: Homo sapiens, Ramos-2G6-4C10;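 note: growth inhibition of the cell line, measured by a cell viability read-out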
# Description: SANGER: Inhibition of human Ramos-2G6-4C10 cell growth in a cell viability assay.
# SCC-15 = assay type: functional, cell-based, Homo sapiens; conditions: Homo sapiens, SCC-15;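 note: growth inhibition of SCC-15 cells, read out with a cell viability assay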
# Description: SANGER: Inhibition of human SCC-15 cell growth in a cell viability assay.
# SF-126 = assay type: functional, cell-based, Homo sapiens; conditions: Homo sapiens, SF-126;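 note: growth inhibition of human SF126 cells, read out with a cell viability assay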
# Description: SANGER: Inhibition of human SF126 cell growth in a cell viability assay.
# SF-268 = assay type: functional, cell-based, Homo sapiens; conditions: Homo sapiens, SF-268;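 note: growth inhibition of SF-268 cells determined with a cell viability assay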
# Description: SANGER: Inhibition of human SF268 cell growth in a cell viability assay.
# SF-539 = assay type: functional, cell-based, Homo sapiens; conditions: Homo sapiens, SF-539;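 note: Read-out is a cell viability assay, with IC50 reflecting inhibition of cell growth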
# Description: SANGER: Inhibition of human SF539 cell growth in a cell viability assay.
# SH-4 = assay type: functional, cell-based; conditions: Homo sapiens;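 note: growth inhibition of SH-4 cells, read out with a cell viability assay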
# Description: SANGER: Inhibition of human SH-4 cell growth in a cell viability assay.
# SK-MEL-1 = assay type: functional, cell-based, Homo sapiens; conditions: Homo sapiens, SK-MEL-1;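 note: growth inhibition of human SK-MEL-1 cells, read out by a cell viability assay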
# Description: SANGER: Inhibition of human SK-MEL-1 cell growth in a cell viability assay.
# SNB-75 = assay type: functional, cell-based, Homo sapiens; conditions: Homo sapiens, SNB-75;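 note: cell viability assay measuring growth inhibition of human SNB-75 cells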
# Description: SANGER: Inhibition of human SNB75 cell growth in a cell viability assay.
# 8-MG-BA = assay type: functional, cell-based, Homo sapiens; conditions: Homo sapiens, 8-MG-BA;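 note: growth inhibition of 8-MG-BA cells, read out with a cell viability assay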
# Description: SANGER: Inhibition of human 8-MG-BA cell growth in a cell viability assay.
# A101D = assay type: functional, cell-based, Homo sapiens; conditions: Homo sapiens, A101D;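 note: growth inhibition of the cell line, measured with a viability assay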
# Description: SANGER: Inhibition of human A101D cell growth in a cell viability assay.
# A498 = assay type: functional, cell-based, Homo sapiens; conditions: Homo sapiens, A498;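 note: growth inhibition of human A498 cells, read out with a cell viability assay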
# Description: SANGER: Inhibition of human A498 cell growth in a cell viability assay.
# BB65-RCC = assay type: functional, cell-based, Homo sapiens; conditions: Homo sapiens, BB65-RCC;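 note: growth inhibition of the cell line, measured with a cell viability assay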
# Description: SANGER: Inhibition of human BB65-RCC cell growth in a cell viability assay.
# C2BBe1 = assay type: functional, cell-based, Homo sapiens; conditions: Homo sapiens, C2BBe1;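 note: growth inhibition of C2BBe1 cells, read out through a viability assay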
# Description: SANGER: Inhibition of human C2BBe1 cell growth in a cell viability assay.
# TE-12 = assay type: functional, cell-based, Homo sapiens; conditions: Homo sapiens, TE-12;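 note: growth inhibition of TE-12 cells, read out by a cell viability assay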
# Description: SANGER: Inhibition of human TE-12 cell growth in a cell viability assay.
# TGBC24TKB = assay type: functional, cell-based; conditions: Homo sapiens;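 note: growth inhibition of human TGBC24TKB cells, read out with a cell viability assay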
# Description: SANGER: Inhibition of human TGBC24TKB cell growth in a cell viability assay.
# TGW = assay type: functional, cell-based, Homo sapiens; conditions: Homo sapiens, TGW;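 note: growth inhibition of human TGW cells, read out with a cell viability assay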
# Description: SANGER: Inhibition of human TGW cell growth in a cell viability assay.
# VA-ES-BJ = assay type: functional, cell-based, Homo sapiens; conditions: Homo sapiens, VA-ES-BJ;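 note: growth inhibition of the VA-ES-BJ cell line, read out by a cell viability assay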
# Description: SANGER: Inhibition of human VA-ES-BJ cell growth in a cell viability assay.
# CGTH-W-1 = assay type: functional, cell-based, Homo sapiens; conditions: Homo sapiens, CGTH-W-1;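 note: growth inhibition of human CGTH-W-1 cells measured by cell viability assay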
# Description: SANGER: Inhibition of human CGTH-W-1 cell growth in a cell viability assay.
compound,measurement,setting,value
COC(=O)[C@H](CCSC)NC(=O)c1ccc(NC[C@@H](N)CS)cc1-c1ccccc1,IC50,COLO-800,> 1.02 µM
same,IC50,D-263MG,> 1.02 µM
same,IC50,DMS-114,> 1.02 µM
same,IC50,ES1,> 1.02 µM
same,IC50,ES6,> 1.02 µM
same,IC50,ES8,> 1.02 µM
same,IC50,ETK-1,> 1.02 µM
same,IC50,GB-1,> 1.02 µM
same,IC50,GI-1,> 1.02 µM
same,IC50,GOTO,> 1.02 µM
same,IC50,HCC2157,> 1.02 µM
same,IC50,HCE-4,> 1.02 µM
same,IC50,HH,> 1.02 µM
same,IC50,HOP-62,> 1.02 µM
same,IC50,IA-LM,0.955 µM
same,IC50,KARPAS-299,> 1.02 µM
same,IC50,KARPAS-45,> 1.02 µM
same,IC50,KNS-42,> 1.02 µM
same,IC50,KS-1,> 1.02 µM
same,IC50,LB2518-MEL,> 1.02 µM
same,IC50,LNCaP-Clone-FGC,> 1.02 µM
same,IC50,LOX IMVI,> 1.02 µM
same,IC50,LS-123,> 1.02 µM
same,IC50,LU-134-A,> 1.02 µM
same,IC50,MFM-223,> 1.02 µM
same,IC50,MLMA,> 1.02 µM
same,IC50,MZ1-PC,> 1.02 µM
same,IC50,MZ7-mel,> 1.02 µM
same,IC50,Mo,> 1.02 µM
same,IC50,NCI-H1355,> 1.02 µM
same,IC50,NCI-H209,> 1.02 µM
same,IC50,NTERA-2-cl-D1,> 1.02 µM
same,IC50,RPMI-8866,> 1.02 µM
same,IC50,Ramos-2G6-4C10,> 1.02 µM
same,IC50,SCC-15,> 1.02 µM
same,IC50,SF-126,> 1.02 µM
same,IC50,SF-268,> 1.02 µM
same,IC50,SF-539,> 1.02 µM
same,IC50,SH-4,> 1.02 µM
same,IC50,SK-MEL-1,> 1.02 µM
same,IC50,SNB-75,> 1.02 µM
same,IC50,8-MG-BA,> 1.02 µM
same,IC50,A101D,> 1.02 µM
same,IC50,A498,> 1.02 µM
same,IC50,BB65-RCC,> 1.02 µM
same,IC50,C2BBe1,> 1.02 µM
same,IC50,TE-12,> 1.02 µM
same,IC50,TGBC24TKB,> 1.02 µM
same,IC50,TGW,> 1.02 µM
same,IC50,VA-ES-BJ,> 1.02 µM
same,IC50,CGTH-W-1,> 1.02 µM
OC[C@H](Cc1ccccc1)Nc1nc(Oc2ccc3c(c2)CCC3)nc2c1ncn2Cc1ccc(-c2ccccc2)cc1,IC50,COLO-800,> 10.2 µM
same,IC50,D-263MG,> 10.2 µM
same,IC50,DMS-114,> 10.2 µM
same,IC50,ES1,1.38 µM
same,IC50,ES6,> 10.2 µM
same,IC50,ES8,> 10.2 µM
same,IC50,ETK-1,> 10.2 µM
same,IC50,GB-1,5.25 µM
same,IC50,GI-1,7.9 µM
same,IC50,GOTO,5.86 µM
same,IC50,HCC2157,> 10.2 µM
same,IC50,HCE-4,7.47 µM
same,IC50,HH,> 10.2 µM
same,IC50,HOP-62,3.45 µM
same,IC50,IA-LM,5.91 µM
same,IC50,KARPAS-299,> 10.2 µM
same,IC50,KARPAS-45,> 10.2 µM
same,IC50,KNS-42,> 10.2 µM
same,IC50,KS-1,> 10.2 µM
same,IC50,LB2518-MEL,> 10.2 µM
same,IC50,LNCaP-Clone-FGC,> 10.2 µM
same,IC50,LOX IMVI,> 10.2 µM
same,IC50,LS-123,9.49 µM
same,IC50,LU-134-A,> 10.2 µM
same,IC50,MFM-223,> 10.2 µM
same,IC50,MLMA,> 10.2 µM
same,IC50,MZ1-PC,6.97 µM
same,IC50,MZ7-mel,8.89 µM
same,IC50,Mo,> 10.2 µM
same,IC50,NCI-H1355,> 10.2 µM
same,IC50,NCI-H209,> 10.2 µM
same,IC50,NTERA-2-cl-D1,> 10.2 µM
same,IC50,RPMI-8866,> 10.2 µM
same,IC50,Ramos-2G6-4C10,7.65 µM
same,IC50,SCC-15,> 10.2 µM
same,IC50,SF-126,> 10.2 µM
same,IC50,SF-268,> 10.2 µM
same,IC50,SF-539,> 10.2 µM
same,IC50,SH-4,> 10.2 µM
same,IC50,SK-MEL-1,> 10.2 µM
same,IC50,SNB-75,> 10.2 µM
same,IC50,8-MG-BA,3.54 µM
same,IC50,A101D,> 10.2 µM
same,IC50,A498,> 10.2 µM
same,IC50,BB65-RCC,7.84 µM
same,IC50,C2BBe1,> 10.2 µM
same,IC50,TE-12,> 10.2 µM
same,IC50,TGBC24TKB,> 10.2 µM
same,IC50,TGW,> 10.2 µM
same,IC50,VA-ES-BJ,2.57 µM
same,IC50,CGTH-W-1,> 10.2 µM

# — ChEMBL document CHEMBL1201861, “Genomics of Drug Sensitity in Cancer screening data, Wellcome Trust Sanger Institute”
